Test results as given in patent US12622909B2, “Allosteric EGFR inhibitors and methods of use thereof” (Dana-Farber Cancer Institute, Inc., priority 2019, dated 2026).
Like-named read-outs stand apart in the source and are kept apart here.

Assays:
EGFR L858R/T790M = EGFR L858R/T790M (Homo sapiens, UniProt P00533, L858R/T790M); experiment: HTRF-based EGFR biochemical assay (L858R/T790M); settings: 100 μM ATP, enzyme 0.02 nM
In short: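 Mutant EGFR preincubated 30 min with compound at room temperature, then reacted 20 min with 1 μM biotinylated tyrosine kinase peptide and 100 μM ATP in 50 mM HEPES pH 7.0, 5 mM MgCl2, 1 mM MnCl2, 0.01% BSA, 2 mM TCEP, 0.1 mM NaVO4. Phosphorylation read by HTRF.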

EGFR L858R = EGFR L858R (Homo sapiens, UniProt P00533, L858R); experiment: HTRF-based EGFR biochemical assay (L858R); settings: 100 μM ATP, enzyme 0.1 nM
Sequence of EGFR L858R (P00533 25-1210 L858R): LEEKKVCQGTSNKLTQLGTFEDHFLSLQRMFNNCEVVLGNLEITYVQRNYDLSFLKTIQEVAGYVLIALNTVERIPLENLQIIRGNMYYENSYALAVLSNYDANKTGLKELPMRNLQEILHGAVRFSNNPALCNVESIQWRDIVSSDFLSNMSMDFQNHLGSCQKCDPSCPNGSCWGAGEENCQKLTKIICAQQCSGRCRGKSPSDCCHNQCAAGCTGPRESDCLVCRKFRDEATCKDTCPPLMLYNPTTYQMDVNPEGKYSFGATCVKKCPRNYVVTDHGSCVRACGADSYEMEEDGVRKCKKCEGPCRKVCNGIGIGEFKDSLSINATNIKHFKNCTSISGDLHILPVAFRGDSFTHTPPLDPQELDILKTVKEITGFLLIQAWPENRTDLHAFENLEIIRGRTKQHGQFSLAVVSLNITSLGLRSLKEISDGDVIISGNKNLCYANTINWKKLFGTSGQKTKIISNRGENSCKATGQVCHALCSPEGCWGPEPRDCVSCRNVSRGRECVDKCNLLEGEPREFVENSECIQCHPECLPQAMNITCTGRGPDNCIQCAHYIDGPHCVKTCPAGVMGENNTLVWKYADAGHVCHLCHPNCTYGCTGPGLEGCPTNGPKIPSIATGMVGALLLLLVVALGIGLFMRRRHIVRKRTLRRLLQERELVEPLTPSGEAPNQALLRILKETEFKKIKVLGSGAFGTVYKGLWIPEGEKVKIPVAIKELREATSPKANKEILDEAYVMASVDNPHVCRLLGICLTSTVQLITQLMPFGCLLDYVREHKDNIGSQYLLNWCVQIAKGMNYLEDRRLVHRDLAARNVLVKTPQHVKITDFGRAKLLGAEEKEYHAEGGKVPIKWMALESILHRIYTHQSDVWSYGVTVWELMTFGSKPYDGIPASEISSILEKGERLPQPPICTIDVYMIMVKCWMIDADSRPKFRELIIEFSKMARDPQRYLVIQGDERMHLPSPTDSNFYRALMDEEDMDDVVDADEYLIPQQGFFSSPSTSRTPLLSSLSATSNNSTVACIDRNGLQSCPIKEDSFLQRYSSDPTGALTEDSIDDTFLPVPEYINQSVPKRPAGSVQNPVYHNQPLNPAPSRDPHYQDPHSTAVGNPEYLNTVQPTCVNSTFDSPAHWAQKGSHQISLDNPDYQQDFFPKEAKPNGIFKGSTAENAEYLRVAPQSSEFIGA
In short: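 Reaction started with 100 μM ATP (final) for 20 min, then quenched with EDTA. Phosphorylation detected by HTRF (Eu-cryptate anti-phosphotyrosine/Streptavidin-XL665, 665/620 nm).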

[1] = target: EGFR L858R/T790M mutant Ba/F3 cells (Homo sapiens, UniProt P00533, T790M/L858R, cells depend on it); experiment: Ba/F3 cell proliferation (Cell Titer Glo); type: cell-based, murine; settings: 72 hours
Sequence of EGFR L858R/T790M mutant Ba/F3 cells (P00533 whole entry T790M/L858R): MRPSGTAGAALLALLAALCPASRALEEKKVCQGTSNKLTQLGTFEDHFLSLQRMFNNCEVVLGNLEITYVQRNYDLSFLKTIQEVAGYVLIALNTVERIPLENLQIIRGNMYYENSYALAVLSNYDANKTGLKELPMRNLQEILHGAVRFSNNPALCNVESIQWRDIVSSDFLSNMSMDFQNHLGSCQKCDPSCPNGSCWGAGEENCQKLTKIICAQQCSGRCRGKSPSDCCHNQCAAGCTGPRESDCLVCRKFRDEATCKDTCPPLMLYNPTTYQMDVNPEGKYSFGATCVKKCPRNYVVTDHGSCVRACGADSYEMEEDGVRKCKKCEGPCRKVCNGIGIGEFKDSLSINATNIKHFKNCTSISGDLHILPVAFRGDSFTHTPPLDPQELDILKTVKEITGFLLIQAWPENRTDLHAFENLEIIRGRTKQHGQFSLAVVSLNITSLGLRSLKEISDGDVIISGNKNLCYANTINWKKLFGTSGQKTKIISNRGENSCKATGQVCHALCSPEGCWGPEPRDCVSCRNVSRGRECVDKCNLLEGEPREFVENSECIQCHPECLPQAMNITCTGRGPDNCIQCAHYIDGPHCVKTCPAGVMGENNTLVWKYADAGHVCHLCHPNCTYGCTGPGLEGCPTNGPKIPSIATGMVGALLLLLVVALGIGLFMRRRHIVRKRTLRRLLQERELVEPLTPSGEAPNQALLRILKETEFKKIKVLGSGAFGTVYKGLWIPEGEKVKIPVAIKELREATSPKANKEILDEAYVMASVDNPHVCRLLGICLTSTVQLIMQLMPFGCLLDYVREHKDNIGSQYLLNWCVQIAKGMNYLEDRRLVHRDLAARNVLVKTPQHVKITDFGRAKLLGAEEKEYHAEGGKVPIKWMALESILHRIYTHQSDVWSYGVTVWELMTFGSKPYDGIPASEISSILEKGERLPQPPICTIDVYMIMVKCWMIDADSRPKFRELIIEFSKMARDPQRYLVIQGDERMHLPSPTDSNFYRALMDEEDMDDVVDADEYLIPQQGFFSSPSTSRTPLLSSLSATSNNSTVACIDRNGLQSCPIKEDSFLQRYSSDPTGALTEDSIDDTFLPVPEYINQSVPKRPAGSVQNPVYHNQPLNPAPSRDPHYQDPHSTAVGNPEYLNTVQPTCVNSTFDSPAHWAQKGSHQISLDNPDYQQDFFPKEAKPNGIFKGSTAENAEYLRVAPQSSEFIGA
In short: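 Ba/F3 cells retrovirally transduced with the EGFR construct and puromycin-selected (2 μg/ml), grown in RPMI 1640 with 10% FBS. Viability read by Cell Titer Glo luminescence (ATP content), triplicate points, experiments repeated at least three times. Curves fitted by non-linear sigmoidal dose-response regression.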

[2] = in combination with 1 μg/ml cetuximab, read-out: Cell IC50 BaF3 L858R/T790M compound + cetuximab
[3] = single agent, read-out: Cell IC50 EGFR BaF3 L858R/T790M

Sequence of EGFR L858R/T790M (P00533 25-1210 T790M/L858R): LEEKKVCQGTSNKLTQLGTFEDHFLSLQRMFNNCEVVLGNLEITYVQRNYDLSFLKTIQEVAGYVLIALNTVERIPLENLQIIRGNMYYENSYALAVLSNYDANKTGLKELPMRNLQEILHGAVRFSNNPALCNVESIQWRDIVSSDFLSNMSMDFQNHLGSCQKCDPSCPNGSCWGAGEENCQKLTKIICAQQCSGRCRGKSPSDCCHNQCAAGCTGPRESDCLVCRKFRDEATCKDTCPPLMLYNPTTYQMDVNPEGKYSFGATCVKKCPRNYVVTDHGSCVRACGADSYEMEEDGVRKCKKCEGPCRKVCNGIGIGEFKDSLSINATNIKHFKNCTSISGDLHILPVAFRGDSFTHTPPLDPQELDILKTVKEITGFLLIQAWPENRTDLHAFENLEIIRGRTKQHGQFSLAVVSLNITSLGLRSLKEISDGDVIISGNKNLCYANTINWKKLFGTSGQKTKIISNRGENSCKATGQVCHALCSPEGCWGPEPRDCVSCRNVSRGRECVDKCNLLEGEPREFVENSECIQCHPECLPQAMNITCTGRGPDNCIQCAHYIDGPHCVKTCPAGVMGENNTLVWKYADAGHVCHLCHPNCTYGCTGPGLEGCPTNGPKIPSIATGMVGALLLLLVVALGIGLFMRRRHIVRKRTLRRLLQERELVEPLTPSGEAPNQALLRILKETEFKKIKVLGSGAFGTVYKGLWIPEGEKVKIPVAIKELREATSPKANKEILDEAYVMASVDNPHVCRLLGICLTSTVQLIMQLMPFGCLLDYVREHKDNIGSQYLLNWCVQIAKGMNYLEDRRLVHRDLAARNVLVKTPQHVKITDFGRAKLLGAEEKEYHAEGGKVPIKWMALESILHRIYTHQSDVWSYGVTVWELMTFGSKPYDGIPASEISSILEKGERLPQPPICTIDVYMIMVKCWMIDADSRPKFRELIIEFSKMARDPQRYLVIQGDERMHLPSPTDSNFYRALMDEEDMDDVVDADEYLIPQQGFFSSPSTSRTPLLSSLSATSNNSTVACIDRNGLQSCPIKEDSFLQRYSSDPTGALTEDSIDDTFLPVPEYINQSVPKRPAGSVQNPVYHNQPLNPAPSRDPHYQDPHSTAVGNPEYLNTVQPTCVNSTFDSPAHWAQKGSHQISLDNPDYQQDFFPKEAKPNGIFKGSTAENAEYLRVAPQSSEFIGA

An IC50 (EGFR L858R/T790M) of 0.008 µM, an IC50 (EGFR L858R) of 0.048 µM and a GI50 [1, 2] of 0.084 µM were found for `CN1CCN(c2ccc(-c3cnc4ncn(C(C(=O)Nc5nccs5)c5ccccc5)c(=O)c4c3)cc2)CC1` (stereo not drawn) [Compound 059, 2-(6-(4-(4-Methylpiperazin-1-yl)-phenyl)-4-oxopyrido[2,3-d]-pyrimidin-3(4H)-yl)-2-phenyl-N-(thiazol-2-yl)acetamide] in this work. The GI50 [1, 3] was 1.37 µM.
An IC50 (EGFR L858R/T790M) of 0.003 µM, an IC50 (EGFR L858R) of 0.007 µM and a GI50 [1, 2] of 0.062 µM were found for `CN1CCN(c2ccc(-c3ccc4c(=O)n(C(C(=O)Nc5nccs5)c5ccccc5)ccc4c3)cc2)CC1` (stereo not drawn) [Compound 017, 2-(6-(4-(4-Methylpiperazin-1-yl)-phenyl)-1-oxoisoquinolin-2(1H)-yl)-2-phenyl-N-(thiazol-2-yl)acetamide] in this work. The GI50 [1, 3] was 1.27 µM.
An IC50 (EGFR L858R/T790M) of 0.048 µM, an IC50 (EGFR L858R) of over 1 µM and a GI50 [1, 2] of 1.5 µM were found for `O=C(Nc1nccs1)C(c1cccc(F)c1)n1ccc2ccc(Br)cc2c1=O` (stereo not drawn) [Compound 007, 2-(7-Bromo-1-oxoisoquinolin-2(1H)-yl)-2-(3-fluorophenyl)-N-(thiazol-2-yl)acetamide] in this work. For the same compound, the GI50 [1, 3] was over 10 µM.
An IC50 (EGFR L858R/T790M) of 0.017 µM, an IC50 (EGFR L858R) of 0.035 µM and a GI50 [1, 2] of 2.1 µM were found for `COc1cccc(F)c1C(C(=O)Nc1nccs1)n1cnc2ccc(-c3ccc(N4CCN(C)CC4)cc3)cc2c1=O` (stereo not drawn) [Compound 077, 2-(2-Fluoro-6-methoxyphenyl)-2-(6-(4-(4-methylpiperazin-1-yl)phenyl)-4-exoquinazolin-3(4H)-yl)-N-(thiazol-2-yl)acetamide] in this work. It also gave a GI50 [1, 3] of 6.46 µM.
An IC50 (EGFR L858R/T790M) of 0.007 µM, an IC50 (EGFR L858R) of 0.032 µM and a GI50 [1, 2] of 0.41 µM were found for `CN1CCC(c2ccc(-c3cnc4c(=O)n(C(C(=O)Nc5nccs5)c5ccccc5)cnc4c3)cc2)CC1` (stereo not drawn) [Compound 056, 2-(7-(4-(1-Methylpiperidin-4-yl)phenyl)-4-oxopyrido[3,2-d]pyrimidin-3(4H)-yl)-2-phenyl-N-(thiazol-2-yl)acetamide] in this work. For the same compound, the GI50 [1, 3] was 3.97 µM.
An IC50 (EGFR L858R/T790M) of 0.036 µM, an IC50 (EGFR L858R) of over 1 µM and a GI50 [1, 2] of 1.8 µM were found for `O=C(Nc1nccs1)C(c1ccccc1)n1cc(F)c2cc(Br)ccc2c1=O` (stereo not drawn) [Compound 006, 2-(6-Bromo-4-fluoro-1-oxo-isoquinolin-2(1H)-yl)-2-phenyl-N-(thiazol-2-yl)acetamide] in this work. It also gave a GI50 [1, 3] of over 10 µM.
An IC50 (EGFR L858R/T790M) of 0.007 µM, an IC50 (EGFR L858R) of 0.05 µM and a GI50 [1, 2] of 0.7 µM were found for `CN1CCN(c2ccc(-c3cnc4c(=O)n(C(C(=O)Nc5nccs5)c5ccccc5)cnc4c3)cc2)CC1` (stereo not drawn) [Compound 057, 2-(7-(4-(4-Methylpiperazin-1-yl)-phenyl)-4-oxopyrido[3,2-d]-pyrimidin-3(4H)-yl)-2-phenyl-N-(thiazol-2-yl)acetamide] in this work. It also gave a GI50 [1, 3] of 4.73 µM.
An IC50 (EGFR L858R/T790M) of 0.006 µM, an IC50 (EGFR L858R) of 0.026 µM and a GI50 [1, 2] of 0.78 µM were found for `CN1CCC(c2ccc(-c3cc4ncn(C(C(=O)Nc5nccs5)c5ccccc5)c(=O)c4cc3F)cc2)CC1` (stereo not drawn) [Compound 020, 2-(6-Fluoro-7-(4-(1-methylpiperidin-4-yl)phenyl)-4-oxoquinazolin-3(4H)-yl)-2-phenyl-N-(thiazol-2-yl)acetamide] in this work. The GI50 [1, 3] was 1.42 µM.
An IC50 (EGFR L858R/T790M) of 0.001 µM, an IC50 (EGFR L858R) of 0.013 µM and a GI50 [1, 2] of 0.041 µM were found for `CN1CCN(c2ccc(-c3ccc4ncn(C(C(=O)Nc5nccs5)c5ccccc5F)c(=O)c4c3)cc2)CC1` (stereo not drawn) [Compound 067, 2-(2-fluorophenyl)-2-(6-(4-(4-methylpiperazin-1-yl)phenyl)-4-oxo-quinazolin-3(4H)-yl)-N-(thiazol-2-yl)-acetamide] in this work. It also gave a GI50 [1, 3] of 3.96 µM.
An IC50 (EGFR L858R/T790M) of 0.029 µM, an IC50 (EGFR L858R) of 0.521 µM and a GI50 [1, 2] of 0.79 µM were found for `O=C(Nc1nccs1)C(c1ccccc1)n1ccc2ccc(Br)cc2c1=O` (stereo not drawn) [Compound 004, 2-(7-Bromo-1-oxoisoquinolin-2(1H)-yl)-2-phenyl-N-(thiazol-2-yl)-acetamide] in this work. It also gave a GI50 [1, 3] of over 10 µM.
An IC50 (EGFR L858R/T790M) of 0.007 µM, an IC50 (EGFR L858R) of 0.021 µM and a GI50 [1, 2] of 0.088 µM were found for `CN1CCC(c2ccc(-c3ccc4c(=O)n(C(C(=O)Nc5nccs5)c5cccc(F)c5)cnc4c3)cc2)CC1` (stereo not drawn) [Compound 028, 2-(3-Fluorophenyl)-2-(7-(4-(1-methyl-piperidin-4-yl)phenyl)-4-oxo-quinazolin-3(4H)-yl)-N-(thiazol-2-yl)-acetamide] in this work. The GI50 [1, 3] was 1.58 µM.
An IC50 (EGFR L858R/T790M) of 0.002 µM, an IC50 (EGFR L858R) of 0.012 µM and a GI50 [1, 2] of 0.072 µM were found for `CN1CCC(c2ccc(-c3ccc4ccn(C(C(=O)Nc5nccs5)c5ccccc5)c(=O)c4c3)cc2)CC1` (stereo not drawn) [Compound 018, 2-(7-(4-(1-Methylpiperidin-4-yl)-phenyl)-1-oxoisoquinolin-2(1H)-yl)-2-phenyl-N-(thiazol-2-yl)acetamide] in this work. For the same compound, the GI50 [1, 3] was 1.52 µM.
An IC50 (EGFR L858R/T790M) of 0.002 µM, an IC50 (EGFR L858R) of 0.029 µM and a GI50 [1, 2] of 0.38 µM were found for `CN1CCC(c2ccc(-c3ccc4ncn(C(C(=O)Nc5nccs5)c5cccnc5)c(=O)c4c3)cc2)CC1` (stereo not drawn) [Compound 065, 2-(6-(4-(1-Methylpiperidin-4-yl)-phenyl)-4-oxoquinazolin-3(4H)-yl)-2-(pyridin-3-yl)-N-(thiazol-2-yl)-acetamide] in this work. It also gave a GI50 [1, 3] of 7.81 µM.
An IC50 (EGFR L858R/T790M) of 0.016 µM, an IC50 (EGFR L858R) of 0.195 µM and a GI50 [1, 2] of 0.35 µM were found for `O=C(Nc1nccs1)C(c1cccc(F)c1)n1cnc2ccc(Br)cc2c1=O` (stereo not drawn) [Compound 011, 2-(6-Bromo-4-oxoquinazolin-3(4H)-yl)-2-(3-fluorophenyl)-N-(thiazol-2-yl)acetamide] in this work. It also gave a GI50 [1, 3] of over 10 µM.
An IC50 (EGFR L858R/T790M) of 0.016 µM, an IC50 (EGFR L858R) of 0.103 µM and a GI50 [1, 2] of 0.97 µM were found for `CN1CCN(c2ccc(-c3cc4ncn(C(C(=O)Nc5nccs5)c5ccccc5)c(=O)c4cc3F)cc2)CC1` (stereo not drawn) [Compound 021, 2-(6-Fluoro-7-(4-(4-methylpiperazin-1-yl)phenyl)-4-oxoquinazolin-3(4H)-yl)-2-phenyl-N-(thiazol-2-yl)acetamide] in this work. For the same compound, the GI50 [1, 3] was 2.9 µM.
